Assay results reported in patent publication US20240293559A1, “SHP2 inhibitor, pharmaceutical composition containing the same and application thereof” (BEIJING TIDE PHARMACEUTICAL CO., LTD., priority 2021, published 2024).

Biological target: T1, SHP2 (Homo sapiens, UniProt Q06124)
T1 construct: endogenous in cells; host or cells: MV 411
T1 sequence (Q06124 1-593): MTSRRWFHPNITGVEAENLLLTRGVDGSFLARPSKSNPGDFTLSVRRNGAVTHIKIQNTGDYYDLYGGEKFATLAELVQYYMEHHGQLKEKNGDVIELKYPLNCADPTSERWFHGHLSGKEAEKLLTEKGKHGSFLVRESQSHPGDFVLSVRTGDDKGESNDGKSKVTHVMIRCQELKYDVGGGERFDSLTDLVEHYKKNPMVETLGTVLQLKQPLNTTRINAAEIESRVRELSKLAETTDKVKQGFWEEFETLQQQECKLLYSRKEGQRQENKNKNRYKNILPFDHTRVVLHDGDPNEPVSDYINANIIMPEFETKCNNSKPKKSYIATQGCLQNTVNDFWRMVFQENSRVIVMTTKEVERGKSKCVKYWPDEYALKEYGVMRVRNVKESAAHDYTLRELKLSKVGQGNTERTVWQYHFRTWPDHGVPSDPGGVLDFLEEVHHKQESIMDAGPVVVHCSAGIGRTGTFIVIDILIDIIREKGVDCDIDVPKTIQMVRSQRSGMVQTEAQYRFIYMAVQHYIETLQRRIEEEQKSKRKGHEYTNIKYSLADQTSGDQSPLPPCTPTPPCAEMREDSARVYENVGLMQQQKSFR
Test: SHP2 degradation in MV 411 cells by Western blot (median degradation concentration)
Type: cell-based
Conditions: 24 hours with compound, SHP-2 antibody Western blot, concentration of the median degradation from exposure gray scale
Excerpt: Reagent: complete DMEM medium, Gibco products. Fetal bovine serum, manufactured byThermoFisher. Trypsin, manufactured byThermoFisher. The SHP-2 antibody is produced by CST. Cell line, MV 411, the blast cells of patients with bi-phenotypic B-myelomonocytic leukemia, was established by Rovera. Measuring method: took the cells growing in the logarithmic phase, collected and suspended the cells in DMEM containing 10% fetal calf serum, gently blowed and beated the cells into single cell suspension by using a pipette, and counted the living cells under a microscope. […] Then cultured for 24 hours. All cells were collected and washed with PBS, lysed with RIPA lysate and collected into a 1.7 ml tube. […] metal bath for 5 minutes to fully denature the protein. 100V constant voltage electrophoresis after Western condensation and loading, stopped when bromophenol blue band reached the end point. The cellulose acetate membrane is transferred by a wet method, 45 minutes at a constant flow of 300-500 mA, 5% BSA is used for blocking for 1-2 hours at room temperature. Primary antibody of 1:500-1:8000 were used for incubation at 25° C. for 40 minutes and then washed three times. Secondary antibody was used for incubation for 15-40 min at room temperature. The proteins were detected using ultrasensitive ECL luminophores such as […], using an X-Ray film automatic developing machine. The concentration of the median degradation was calculated by exposure gray scale.

| Compound | DC50 [nM] |
| --- | --- |
| CCOc1cc2oc(-c3ccc(OCCOCCOCCOCCOc4cccc5c4C(=O)N(C4CCC(=O)NC4=O)C5=O)cc3Cl)cc(=O)c2cc1-c1cc(C(N)=O)cc(-n2ccnc2)c1 (centres unmarked) [Compound 60] | > 250 |
| CCOc1cc2oc(-c3ccc(OCCOCCOCCOCCOc4cccc5c4C(=O)N(C4CCC(=O)NC4=O)C5=O)cc3Cl)cc(=O)c2cc1-c1cc(C(N)=O)cc(-c2c[nH]cn2)c1 (centres unmarked) [Compound 61] | > 250 |
| CCOc1cc2oc(-c3ccc(OCCOCCOCCOCCOc4cccc5c4C(=O)N(C4CCC(=O)NC4=O)C5=O)cc3Cl)cc(=O)c2cc1-c1cc(NC)cc(C(N)=O)c1 (centres unmarked) [Compound 62] | > 250 |
| CCOc1cc2oc(-c3ccc(OCCOCCOCCOCCOc4cccc5c4C(=O)N(C4CCC(=O)NC4=O)C5=O)cc3Cl)cc(=O)c2cc1-c1cc(C(N)=O)cc(N(C)C)c1 (centres unmarked) [Compound 63] | > 250 |
| CCOc1cc2oc(-c3ccc(OCCOCCOCCOCCOc4cccc5c4C(=O)N(C4CCC(=O)NC4=O)C5=O)cc3Cl)cc(=O)c2cc1-c1cc(NC(C)=O)cc(C(N)=O)c1 (centres unmarked) [Compound 64] | > 250 |
| CCOc1cc2oc(-c3ccc(OCCOCCOCCOCCOc4cccc5c4C(=O)N(C4CCC(=O)NC4=O)C5=O)cc3Cl)cc(=O)c2cc1-c1cc(C(N)=O)cc(N(C)C(C)=O)c1 (centres unmarked) [Compound 65] | > 250 |
| CCOc1cc2oc(-c3ccc(OCCOCCOCCOCCOc4cccc5c4C(=O)N(C4CCC(=O)NC4=O)C5=O)cc3Cl)cc(=O)c2cc1-c1cc(NS(C)(=O)=O)cc(C(N)=O)c1 (centres unmarked) [Compound 66] | > 250 |
| CCOc1cc2oc(-c3ccc(OCCOCCOCCOCCOc4cccc5c4C(=O)N(C4CCC(=O)NC4=O)C5=O)cc3Cl)cc(=O)c2cc1-c1cc(C(N)=O)cc(N(C)S(C)(=O)=O)c1 (centres unmarked) [Compound 67] | > 250 |
| CCOc1cc2oc(-c3ccc(OCCOCCOCCOCCOc4cccc5c4C(=O)N(C4CCC(=O)NC4=O)C5=O)cc3Cl)cc(=O)c2cc1-c1cc(NS(=O)(=O)c2ccccc2)cc(C(N)=O)c1 (centres unmarked) [Compound 68] | > 250 |
| CCOc1cc2oc(-c3ccc(OCCOCCOCCOCCOc4cccc5c4C(=O)N(C4CCC(=O)NC4=O)C5=O)cc3Cl)cc(=O)c2cc1-c1cc(C(N)=O)cc(N(C)S(=O)(=O)c2ccccc2)c1 (centres unmarked) [Compound 69] | > 250 |
| CCOc1cc2oc(-c3ccc(OCCOCCOCCOCCOc4cccc5c4C(=O)N(C4CCC(=O)NC4=O)C5=O)cc3Cl)cc(=O)c2cc1-c1cc(NC(=O)NC)cc(C(N)=O)c1 (centres unmarked) [Compound 70] | > 250 |
| CCOc1cc2oc(-c3ccc(OCCOCCOCCOCCOc4cccc5c4C(=O)N(C4CCC(=O)NC4=O)C5=O)cc3Cl)cc(=O)c2cc1-c1cc(NC(=O)Nc2ccccc2)cc(C(N)=O)c1 (centres unmarked) [Compound 71] | > 250 |
| CCOc1cc2oc(-c3ccc(OCCOCCOCCOCCOc4cccc5c4C(=O)N(C4CCC(=O)NC4=O)C5=O)cc3Cl)cc(=O)c2cc1CCC(=O)Nc1ccccc1 (centres unmarked) [Compound 72] | > 250 |
| CCOc1cc2oc(-c3ccc(OCCOCCOCCOCCOc4cccc5c4C(=O)N(C4CCC(=O)NC4=O)C5=O)cc3Cl)cc(=O)c2cc1-c1cc(O)cc(C(N)=O)c1 (centres unmarked) [Compound 73] | > 250 |
| CCOc1cc2oc(-c3ccc(OCCOCCOCCOCCOc4cccc5c4C(=O)N(C4CCC(=O)NC4=O)C5=O)cc3Cl)cc(=O)c2cc1-c1cc(C(N)=O)cc(C(N)=O)c1 (centres unmarked) [Compound 74] | 2 |
| CCOc1cc2oc(-c3ccc(OCCOCCOCCOCCOc4cccc5c4C(=O)N(C4CCC(=O)NC4=O)C5=O)cc3Cl)cc(=O)c2cc1-c1cc(C(C)=O)cc(C(N)=O)c1 (centres unmarked) [Compound 75] | 24.6 |
| CCOc1cc2oc(-c3ccc(OCCOCCOCCOCCOc4cccc5c4C(=O)N(C4CCC(=O)NC4=O)C5=O)cc3Cl)cc(=O)c2cc1-c1cc(C(N)=O)cc(C(=O)NC)c1 (centres unmarked) [Compound 76] | > 250 |
| CCOc1cc2oc(-c3ccc(OCCOCCOCCOCCOc4cccc5c4C(=O)N(C4CCC(=O)NC4=O)C5=O)cc3Cl)cc(=O)c2cc1-c1cc(C(N)=O)cc(C(=O)N(C)C)c1 (centres unmarked) [Compound 77] | > 250 |
| CCOc1cc2oc(-c3ccc(OCCOCCOCCOCCOc4cccc5c4C(=O)N(C4CCC(=O)NC4=O)C5=O)cc3Cl)cc(=O)c2cc1-c1cc(C(N)=O)cc(C(=O)Nc2ccccc2)c1 (centres unmarked) [Compound 78] | > 250 |
| CCOc1cc2oc(-c3ccc(OCCOCCOCCOCCOc4cccc5c4C(=O)N(C4CCC(=O)NC4=O)C5=O)cc3Cl)cc(=O)c2cc1-c1cc(C(N)=O)cc(S(C)(=O)=O)c1 (centres unmarked) [Compound 79] | 500 |
| CCOc1cc2oc(-c3ccc(OCCOCCOCCOCCOc4cccc5c4C(=O)N(C4CCC(=O)NC4=O)C5=O)cc3Cl)cc(=O)c2cc1-c1cc(C(N)=O)cc(S(N)(=O)=O)c1 (centres unmarked) [Compound 80] | > 500 |
| CCOc1cc2oc(-c3ccc(OCCOCCOCCOCCOc4cccc5c4C(=O)N(C4CCC(=O)NC4=O)C5=O)cc3Cl)cc(=O)c2cc1-c1cc(C(N)=O)cc(S(=O)(=O)NC)c1 (centres unmarked) [Compound 81] | > 500 |
| CCOc1cc2oc(-c3ccc(NCCOCCOCCOCCOc4ccc5c(c4)C(=O)N(C4CCC(=O)NC4=O)C5=O)cc3Cl)cc(=O)c2cc1-c1cccc(C(C)=O)c1 (centres unmarked) [Compound 86] | 50 |
| CCOc1cc2oc(-c3ccc(OCCOCCOCCOCCOc4ccc5c(c4)C(=O)N(C4CCC(=O)NC4=O)C5=O)cc3Cl)cc(=O)c2cc1-c1cncc(C(C)=O)c1 (centres unmarked) [Compound 87] | 45 |
| CCOc1cc2oc(-c3ccc(OCc4cn(CC(=O)N5CCC(OC6CC(Oc7cccc8c7C(=O)N(C7CCC(=O)NC7=O)C8=O)C6)CC5)nn4)cc3Cl)cc(=O)c2cc1-c1cccc(C(C)=O)c1 (centres unmarked) [Compound 88] | 55 |
| CCOc1cc2oc(-c3ccc(NCCOCCOCCOCCOc4cccc5c4C(=O)N(C4CCC(=O)N(COC(=O)CC6CCCCC6)C4=O)C5=O)cc3Cl)cc(=O)c2cc1-c1cccc(C(C)=O)c1 (centres unmarked) [Compound 89] | 75 |
